Experimental data as given in patent publication US3978045A, “N^2 -dansyl-L-arginine derivatives, and the pharmaceutically acceptable acid addition salts thereof” (priority 1973, dated 1976).
Non-standard residues stand in square brackets, D forms with d. Residues, ends and D or L forms follow the SMILES beside them. ξ: configuration not given here. *: point of attachment. Dansyl = CN(C)c1cccc2c(S(=O)(=O)*)cccc12; ξP = O=C(O)C1CCCN1; Sar = CNCC(=O)O

What was measured:
[1] = Acute toxicity (LD50) by oral administration in mice; conditions: mouse, in vivo, per kilogram of body weight
thrombin = target: T1, thrombin (Bos taurus, UniProt P00735); test: Fibrinogen coagulation time (thrombin-induced clotting of fibrinogen); assay type: biochemical; conditions: bovine fibrinogen, borate saline buffer pH 7.4, thrombin 0.1 ml of 5 units/ml, 25°C; control coagulation time 50-55 seconds; read-out: Concentration required to prolong the coagulation time by a factor of 2
T1 construct: mature alpha-thrombin (light plus heavy chain) cut from prothrombin
Protocol: The antithrombotic activities of the N^2 -dansyl-L-arginine derivatives of this invention were compared with those of a known antithrombotic agent, (N^2 -(p-tolylsulfonyl)-L-arginine methyl ester). by determining the fibrinogen coagulation time. The measurement of the fibrinogen coagulation time was conducted as follows:
Immediately after mixing, the reaction mixture was transferred from the ice bath to a bath thermostated at 25°C. Coagulation times were taken as the period between the time of transference to the 25°C bath and the time of the first appearance of fibrin threads.
The term "concentration required to prolong the coagulation time by a factor of two" is the concentration of an active ingredient required to prolong the normal coagulation time 50-55 seconds to 100-110 seconds.

SMILES: CN(C)c1cccc2c(S(=O)(=O)N[C@@H](CCCNC(=N)N)C(=O)N3Cc4ccccc4C3)cccc12 [2-(N^2-dansyl-L-arginyl)isoindoline]
- LD50 [1]: 1360 mg/kg

SMILES: CCC1CCN(C(=O)[C@H](CCCNC(=N)N)NS(=O)(=O)c2cccc3c(N(C)C)cccc23)CC1 [4-ethyl-1-(N^2-dansyl-L-arginyl)piperidine]
- LD50 [1]: 1380 mg/kg

SMILES: CC1CCN(C(=O)[C@H](CCCNC(=N)N)NS(=O)(=O)c2cccc3c(N(C)C)cccc23)CC1 [4-methyl-1-(N^2-dansyl-L-arginyl)piperidine]
- LD50 [1]: 1310 mg/kg

SMILES: CCCCOC(=O)[C@H](CCCNC(=N)N)NS(=O)(=O)c1cccc2c(N(C)C)cccc12 [N^2 -dansyl-L-arginine n-butyl ester]
- LD50 [1]: > 6000 mg/kg

SMILES: CCCCN(C)C(=O)[C@H](CCCNC(=N)N)NS(=O)(=O)c1cccc2c(N(C)C)cccc12 [Sample 47, N^2 -dansyl-N-(n-butyl)-N-methyl-L-argininamide diacetate]
- IC (2-fold clotting time) (thrombin): 2 µM

SMILES: CCCCN(CC)C(=O)[C@H](CCCNC(=N)N)NS(=O)(=O)c1cccc2c(N(C)C)cccc12 [Sample 48]
- IC (2-fold clotting time) (thrombin): 50 µM

SMILES: CCOC(=O)CN(C)C(=O)[C@H](CCCNC(=N)N)NS(=O)(=O)c1cccc2c(N(C)C)cccc12 [Sample 49] (Dansyl-Arg-[Sar]-OEt)
- IC (2-fold clotting time) (thrombin): 59 µM

SMILES: COC(=O)CCN(C)C(=O)[C@H](CCCNC(=N)N)NS(=O)(=O)c1cccc2c(N(C)C)cccc12 [Sample 50, N^2-dansyl-N-methyl-N-(2-methoxycarbonylethyl)-L-argininamide]
- IC (2-fold clotting time) (thrombin): 2.5 µM

SMILES: CCOC(=O)CCN(C)C(=O)[C@H](CCCNC(=N)N)NS(=O)(=O)c1cccc2c(N(C)C)cccc12 [Sample 51]
- IC (2-fold clotting time) (thrombin): 15 µM

SMILES: CN(Cc1ccccc1)C(=O)[C@H](CCCNC(=N)N)NS(=O)(=O)c1cccc2c(N(C)C)cccc12 [Sample 52, N^2 -dansyl-N-methyl-N-benzyl-L-argininamide]
- IC (2-fold clotting time) (thrombin): 7 µM

SMILES: CN(C)c1cccc2c(S(=O)(=O)N[C@@H](CCCNC(=N)N)C(=O)N3CCCC3)cccc12 [Sample 53, 1-(N^2-dansyl-L-arginyl)pyrrolidine diacetate]
- IC (2-fold clotting time) (thrombin): 3.3 µM

SMILES: CCOC(=O)C1CCCN1C(=O)[C@H](CCCNC(=N)N)NS(=O)(=O)c1cccc2c(N(C)C)cccc12 (some centres unmarked) [Sample 54] (Dansyl-Arg-[ξP]-OEt)
- IC (2-fold clotting time) (thrombin): 780 µM

SMILES: CN(C)c1cccc2c(S(=O)(=O)N[C@@H](CCCNC(=N)N)C(=O)N3CCCCC3)cccc12 [Sample 55, 1-(N^2-dansyl-L-arginyl)piperidine diacetate]
- IC (2-fold clotting time) (thrombin): 0.9 µM

SMILES: CC1CCCCN1C(=O)[C@H](CCCNC(=N)N)NS(=O)(=O)c1cccc2c(N(C)C)cccc12 (stereo partly drawn) [Sample 56, 2-methyl-1-(N^2-dansyl-L-arginyl)piperidine]
- IC (2-fold clotting time) (thrombin): 1.3 µM

SMILES: CC1CCCN(C(=O)[C@H](CCCNC(=N)N)NS(=O)(=O)c2cccc3c(N(C)C)cccc23)C1 (stereo partly drawn) [Sample 57, 3-methyl-1-(N^2-dansyl-L-arginyl)piperidine]
- IC (2-fold clotting time) (thrombin): 6.5 µM

SMILES: CC1CCN(C(=O)[C@H](CCCNC(=N)N)NS(=O)(=O)c2cccc3c(N(C)C)cccc23)CC1 [Sample 58, 4-methyl-1-(N^2-dansyl-L-arginyl)piperidine diacetate]
- IC (2-fold clotting time) (thrombin): 0.3 µM

SMILES: CCC1CCN(C(=O)[C@H](CCCNC(=N)N)NS(=O)(=O)c2cccc3c(N(C)C)cccc23)CC1 [Sample 59, 4-ethyl-1-(N^2-dansyl-L-arginyl) piperidine]
- IC (2-fold clotting time) (thrombin): 0.1 µM

SMILES: CCCC1CCN(C(=O)[C@H](CCCNC(=N)N)NS(=O)(=O)c2cccc3c(N(C)C)cccc23)CC1 [Sample 60, 4-(n-propyl)-1-(N^2-dansyl-L-arginyl)piperidine]
- IC (2-fold clotting time) (thrombin): 1 µM

SMILES: CC(C)C1CCN(C(=O)[C@H](CCCNC(=N)N)NS(=O)(=O)c2cccc3c(N(C)C)cccc23)CC1 [Sample 61, 4-(isopropyl)-1-(N^2-dansyl-L-arginyl)piperidine]
- IC (2-fold clotting time) (thrombin): 1 µM

SMILES: COC(=O)C1CCN(C(=O)[C@H](CCCNC(=N)N)NS(=O)(=O)c2cccc3c(N(C)C)cccc23)CC1 [Sample 62, 4-methoxycarbonyl-1-(N^2-dansyl-L-arginyl)piperidine]
- IC (2-fold clotting time) (thrombin): 2.8 µM

SMILES: CN(C)c1cccc2c(S(=O)(=O)N[C@@H](CCCNC(=N)N)C(=O)N3CCC(C(N)=O)CC3)cccc12 [Sample 63]
- IC (2-fold clotting time) (thrombin): 100 µM

SMILES: CN(C)c1cccc2c(S(=O)(=O)N[C@@H](CCCNC(=N)N)C(=O)N3CCCCCC3)cccc12 [Sample 64, N^2 -dansyl-N,N-hexamethylene-L-argininamide]
- IC (2-fold clotting time) (thrombin): 0.9 µM

SMILES: CN(C)c1cccc2c(S(=O)(=O)N[C@@H](CCCNC(=N)N)C(=O)N3CCCCCCC3)cccc12 [Sample 65, N^2 -dansyl-N,N-heptamethylene-L-argininamide]
- IC (2-fold clotting time) (thrombin): 1 µM

SMILES: CN(C)c1cccc2c(S(=O)(=O)N[C@@H](CCCNC(=N)N)C(=O)N3CCCCCCCC3)cccc12 [Sample 66, N^2 -dansyl-N,N-octamethylene-L-argininamide]
- IC (2-fold clotting time) (thrombin): 2 µM

SMILES: CN(C)c1cccc2c(S(=O)(=O)N[C@@H](CCCNC(=N)N)C(=O)N3CCOCC3)cccc12 [Sample 67, 4-(N^2-dansyl-L-arginyl)morpholine]
- IC (2-fold clotting time) (thrombin): 1.5 µM

SMILES: CC1CN(C(=O)[C@H](CCCNC(=N)N)NS(=O)(=O)c2cccc3c(N(C)C)cccc23)CC(C)O1 (some centres unmarked) [Sample 68]
- IC (2-fold clotting time) (thrombin): 20 µM

SMILES: CN(C)c1cccc2c(S(=O)(=O)N[C@@H](CCCNC(=N)N)C(=O)N3Cc4ccccc4C3)cccc12 [Sample 70, 2-(N^2-dansyl-L-arginyl)isoindoline]
- IC (2-fold clotting time) (thrombin): 0.67 µM

SMILES: CN1CCN(C(=O)[C@H](CCCNC(=N)N)NS(=O)(=O)c2cccc3c(N(C)C)cccc23)CC1 [Sample 71, 4-methyl-1-(N^2-dansyl-L-arginyl)piperazine]
- IC (2-fold clotting time) (thrombin): 2 µM

SMILES: CN(C)c1cccc2c(S(=O)(=O)N[C@@H](CCCNC(=N)N)C(=O)N3CCCc4ccccc43)cccc12 [Sample 72, N^2-dansyl-N-(1,2,3,4-tetrahydro-1-quinolyl)argininamide]
- IC (2-fold clotting time) (thrombin): 6.5 µM
